Measurements published in ChEMBL document CHEMBL3988442, “University of Dundee, Small-Polar-MMV Screening Library” (2021).

What was measured:
Plasmodium falciparum = experiment: Calibr Malaria Delayed Death Assay SOP; format: functional, organism-based; settings: for IC50: Plasmodium falciparum
[1] = microbe, parasite or virus in culture; settings: Mycobacterium tuberculosis, 96 h, read-out: pIC50 (converted)
[2] = microbe, parasite or virus in culture; settings: Mycobacterium tuberculosis, 72 h, read-out: pIC50 (converted)
ClpP1P2 = ClpP1P2 (Mycobacterium tuberculosis (strain ATCC 25618 / H37Rv), UniProt P9WPC3+P9WPC5); experiment: in vitro assay to detect presence of AMC directly proportional to the activity of ClpP1P2. GHDDI collaboration.; format: functional
Chain of ClpP1P2 (P9WPC5 whole entry): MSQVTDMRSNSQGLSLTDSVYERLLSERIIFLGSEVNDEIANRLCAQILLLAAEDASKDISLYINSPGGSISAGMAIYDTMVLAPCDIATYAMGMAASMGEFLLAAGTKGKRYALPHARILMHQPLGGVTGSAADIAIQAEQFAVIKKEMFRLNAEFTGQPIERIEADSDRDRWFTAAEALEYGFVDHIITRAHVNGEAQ
Chain of ClpP1P2 (P9WPC3 whole entry): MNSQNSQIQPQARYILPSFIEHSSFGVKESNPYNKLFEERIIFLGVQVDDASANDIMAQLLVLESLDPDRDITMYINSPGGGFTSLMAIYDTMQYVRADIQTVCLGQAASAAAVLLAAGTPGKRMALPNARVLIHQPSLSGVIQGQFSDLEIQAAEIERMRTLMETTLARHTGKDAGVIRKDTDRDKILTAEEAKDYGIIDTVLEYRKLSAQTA

Row | Structure (SMILES) | pIC50 (Plasmodium falciparum) | IC50 (Plasmodium falciparum) [nM] | IC50 [1] [µM] | IC50 [2] [µM] | IC50 (ClpP1P2) [µM]
1 | COc1cc(CNCC(O)c2ccc(F)c(F)c2)cc2c1OCO2 (stereo not given) | 6.45 | 460 | – | – | –
2 | CC[C@H]1CN2CC[C@H]1C[C@@H]2CNCc1ccc(OC(F)(F)F)cc1 | 6.073 | 806 | 19.8 | 31.9 | –
3 | CC[C@H]1CN2CC[C@H]1C[C@@H]2CNC(=O)Nc1cc(OC)cc(OC)c1 | 6.272 | 762 | > 50.1 | > 50.1 | –
4 | COc1cc(CN2CCCCCC2c2cccs2)cc(OC)c1O (stereo not given) | – | – | – | – | 16.8
5 | CCCNC(=O)c1cc(-c2ccn(C(C)C)n2)n2ccccc12 | – | – | – | – | > 100
6 | COCCn1cnc(-c2cc(C(=O)NC(C)C)c3ccccn23)c1 | – | – | – | – | > 100
7 | CC(C)Nc1nc2c(c(NC3CC3)n1)CN(C(=O)c1ccsc1)CC2 | – | – | – | – | > 100
8 | c1cncc(-c2ccc3c(c2)CCC32CCNCC2)c1 | 5.939 | 1280 | 40.9 | 46.2 | –
9 | O=C(c1c2c(N3CCCC3)ncnc2n2ccccc12)N1CCOCC1 | – | – | – | – | > 100
10 | O=C(c1c2c(NCC3CC3)ncnc2n2ccccc12)N1CCCC1 | – | – | – | – | > 100
11 | O=C(c1c2c(N3CCOCC3)ncnc2n2ccccc12)N1CCCC1 | – | – | – | – | > 100
12 | O=C(c1c2c(NCC3CC3)ncnc2n2ccccc12)N1CCOCC1 | – | – | – | – | > 100
13 | CNC(=O)c1cc2c(nc1NCC(C)C)CCN(S(=O)(=O)N(C)C)CC2 | – | – | – | – | > 100
14 | Cc1ccc(S(=O)(=O)N2CCCC3(CCCN3S(C)(=O)=O)C2)cc1F (stereo not given) | – | – | – | – | > 100
15 | CN(C)c1ncc(-c2cc(C(=O)NC(C)(C)CO)n(CC3CC3)c2)cn1 | – | – | – | – | > 100
16 | CN(C)c1ncc(-c2cc(C(=O)N3CCCC3)n(CC3CC3)c2)cn1 | – | – | – | – | > 100
17 | N#Cc1ccc(OC[C@]23COC[C@H]2CN(Cc2ccoc2)C3)nc1 | – | – | – | – | > 100
18 | CCS(=O)(=O)N1CCc2cc(C(=O)NC)c(NCC3CC3)nc2CC1 | – | – | – | – | > 100
19 | CN1CCc2c(C#N)c(NCc3ccncc3)n3cnnc3c2C1 | – | – | – | – | > 100
20 | CC/N=c1\nc(NCC)nc2n1C(O)(Nc1cc(Cl)ccc1Cl)CS2 (stereo not given) | – | – | – | – | > 100
21 | Cn1ccc2c(cnc3nc(-c4ccncc4)nn32)c1=O | – | – | – | – | > 100
22 | NC(=O)C1CCN(c2nc3nccc(-c4cccnc4)c3c(=O)[nH]2)CC1 | – | – | – | – | > 100

Row | Structure (SMILES) | pIC50 (Plasmodium falciparum) | IC50 (Plasmodium falciparum) [nM] | IC50 [1] [µM] | IC50 [2] [µM] | IC50 (ClpP1P2) [µM]
23 | NC(=O)C1CCN(c2nc3nccc(-c4ccncc4)c3c(=O)[nH]2)CC1 | – | – | – | – | > 100
24 | OCCNc1nc(Nc2ccccc2)c2nccnc2n1 | – | – | – | – | > 100
25 | OCCNc1nc(NCCc2ccccc2)nc2nccnc12 | – | – | – | – | > 100
26 | OCCNc1nc(NCc2cccnc2)nc2nccnc12 | – | – | – | – | > 100
27 | COCCNc1nc(NCCc2ccccc2)nc2nccnc12 | – | – | – | – | > 100
28 | CCN1CCc2c(sc3c2C(=O)NC(/C=C\c2ccccc2)N3)C1 (stereo not given) | – | – | – | – | > 100
29 | COc1ccc(-c2ccnc3nc(N4CCCC4)[nH]c(=O)c23)cc1OC | – | – | – | – | > 100
30 | COc1cccc(-c2ccnc3nc(N4CCCCC4)[nH]c(=O)c23)c1 | – | – | – | – | > 100
31 | CN1CCc2c(sc3c2C(=O)NC(/C=C/c2ccccc2)N3)C1 (stereo not given) | – | – | – | – | > 100
32 | Oc1ccc(Cl)cc1CNCc1cccc(C(F)(F)F)c1 | 6.177 | 653 | 29.1 | 43.2 | –
33 | CCOc1ccc(CN2CCCC(c3cc4ncccc4[nH]3)C2)cc1 (stereo not given) | 6.15 | 842 | 24.8 | 33.6 | –
34 | Cc1cc(Cc2cccc(C(F)(F)F)c2)cc(C2CCCNC2)n1 (stereo not given) | 6.047 | 1120 | 37.9 | 25.3 | –
35 | O=C(CCN1CCCC1c1cccc2c1OCCO2)N1CCCCC1 (stereo not given) | 5.987 | 845 | > 50.1 | 25.2 | –
36 | Cc1ccc(CNCc2cccc3cccnc23)c(OC2CCOC2)c1 (stereo not given) | 6.31 | 619 | > 50.1 | > 50.1 | –
37 | Cc1cnn(CCCNCc2csc(COc3ccccc3)n2)c1 | 6.021 | 828 | 11.4 | 27.8 | –
38 | CS(=O)(=O)CCCNC1(c2cccc(Cl)c2)CCCC1 | 6.268 | 870 | > 50.1 | > 50.1 | –
39 | CC(Nc1nc(-c2ccccc2)nc2c1CCNCC2)c1cccnc1 (stereo not given) | 5.884 | 1460 | 28 | 27.6 | –
40 | CC1CCCCN1C(=O)c1coc(COc2cccc3cnccc23)n1 (stereo not given) | 6.214 | 616 | 24.4 | 44 | –
41 | OC1(CN2CCC(Oc3cccc(C(F)(F)F)c3)CC2)CCNC1 (stereo not given) | 6.152 | 690 | – | > 50.1 | –
42 | c1ccc(-c2nc3c(c(NCc4n[nH]c5c4CCC5)n2)CCNC3)cc1 | 6.219 | 902 | 46.1 | 25.7 | –
43 | COc1ccc2[nH]c(CNc3cc(C4CCNCC4)nc(C)n3)cc2c1 | 5.758 | 1830 | 12.4 | 14.3 | –
44 | CCc1[nH]c2c(CNc3cc(C)nc(NC)n3)cc(C)cc2c1C | 6.096 | 750 | 40.3 | 35.7 | –

Row | Structure (SMILES) | pIC50 (Plasmodium falciparum) | IC50 (Plasmodium falciparum) [nM] | IC50 [1] [µM] | IC50 [2] [µM] | IC50 (ClpP1P2) [µM]
45 | CCc1cnc(N)nc1NC(C)c1ccc(C)c(C)c1 (stereo not given) | 6.042 | 893 | 44.1 | 23.8 | –
46 | O=C(CCN1CCCC(CO)(CC2CC2)C1)NCc1cccc(Cl)c1 (stereo not given) | 5.764 | 1320 | > 50.1 | > 50.1 | –
47 | CCCn1ccnc1CN1CCCC1c1ccccn1 (stereo not given) | 6.456 | 395 | > 50.1 | > 50.1 | –
48 | Cc1nc(-c2cc(Cl)cc3c2OC(CN)C3)c[nH]1 (stereo not given) | 6.207 | 655 | > 50.1 | 13.6 | –
49 | CCOc1cccc(CN2CCCC(Nc3ccc(F)cc3)C2)c1O (stereo not given) | 6.217 | 577 | 46.1 | – | –
50 | Cc1nc(-c2cc(Cl)c3c(c2)CC(CN)O3)c[nH]1 (stereo not given) | 5.986 | 1390 | 8.33 | 2.58 | –
51 | c1ccc(C2CN(C3CC3)CC3(CCN(Cc4cscn4)CC3)C2)cc1 (stereo not given) | 6.129 | 969 | 25.7 | 26.1 | –
52 | COCCN(C)Cc1cc(Cl)ccc1OCC(O)CN1CCCCCC1 (stereo not given) | 6.019 | 953 | 12.4 | > 50.1 | –
53 | CCNC(=O)N(C)C1CCN(Cc2ncc(C)c(OC)c2C)CC1 | 5.844 | 1590 | – | – | –
54 | c1ccc(CCCN2CCN(c3ccc4nncn4n3)CC2)cc1 | 5.983 | 1410 | – | – | –
55 | CCN1CCCC(CNC(=O)C2(c3cc(C)cc(C)c3)CCC2)C1 (stereo not given) | 6.008 | 1510 | – | – | –
56 | COc1cc(CNCC(O)c2ccc(F)cc2F)cc2c1OCO2 (stereo not given) | 6.074 | 972 | – | – | –
57 | O=C(NCCN1CCCC1)C1(c2ccc(Cl)cc2)CCOCC1 | 6.003 | 714 | – | – | –
58 | O=C(Nc1ccc(OC2CCCC2)cc1)C1CCCN1c1nccs1 (stereo not given) | 7.074 | 79.3 | – | – | –
59 | OCCN1CCC(CNCc2ccccc2OC(F)(F)F)CC1 | 6.066 | 770 | – | – | –
60 | CN1CCCC1CNC(=O)CCCOc1cccc(Br)c1 (stereo not given) | 5.833 | 1170 | – | – | –
61 | CCN(CC)C(CNC(=O)c1c(C)noc1C(C)C)c1ccsc1 (stereo not given) | 6.097 | 1360 | – | – | –
62 | Cc1cc(C)n(C2CN(CC(O)c3cc(F)ccc3F)C2)n1 (stereo not given) | 6.757 | 223 | – | – | –
63 | Cc1cc(C)n(C2CN(CC(O)c3ccc(C(F)(F)F)cc3)C2)n1 (stereo not given) | 5.98 | 1030 | – | – | –
64 | c1cnnc(N2CCCC2CNc2ncnc3sccc23)c1 (stereo not given) | 5.797 | 1260 | – | – | –
65 | COc1cc(C(=O)NCc2ccc3c(c2)CCCN3C)cc(OC)c1Br | 6.846 | 251 | – | – | –
66 | CC(O)CN1CCC(CNCc2cccc(C(F)(F)F)c2)CC1 (stereo not given) | 6.332 | 751 | – | – | –

Row | Structure (SMILES) | pIC50 (Plasmodium falciparum) | IC50 (Plasmodium falciparum) [nM] | IC50 [1] [µM] | IC50 [2] [µM] | IC50 (ClpP1P2) [µM]
67 | CC(O)CN1CCC(CNCc2cccc(Cl)c2)CC1 (stereo not given) | 6.249 | 599 | – | – | –
68 | CN(Cc1ncc(C(C)(C)C)o1)CC1CCCN1c1cccnn1 (stereo not given) | 5.852 | 1620 | – | – | –
69 | COc1c(C)cnc(CN2CCC(N(C)C(C)C(N)=O)CC2)c1C (stereo not given) | 6.018 | 876 | – | – | –
70 | COc1ccc(NC(=O)c2ccc(-n3ncc(C#N)c3N)cc2)cn1 | 5.946 | 1110 | – | – | –
71 | CCc1ncc2c(n1)CN(CC(=O)Nc1ccc(Cl)cn1)CC2 | 5.772 | 1240 | – | – | –
72 | CC(O)CN1CCC(CNCc2cccc(Br)c2)CC1 (stereo not given) | 6.286 | 528 | – | – | –
73 | COc1cc(CNCC(O)c2cccc(F)c2)cc2c1OCO2.Cl (stereo not given) | 6.133 | 729 | – | – | –
74 | CC(C)c1nn(C)c(Cl)c1CNCC(O)c1cccc(F)c1.Cl (stereo not given) | 6.252 | 392 | – | – | –
75 | Cl.Cl.Clc1cccc(C[C@@H]2NCCC[C@@H]2Nc2ccccc2)c1 | 6.034 | 789 | 16 | 12 | –
76 | Cc1nc(-c2cc(C(=O)N3CCCN(C)CC3)c3ccccn23)cn1C | – | – | – | – | > 100
77 | CC(C)n1ccc(-c2cc(C(=O)N3CCN(C)CC3)c3ccccn23)n1 | – | – | – | – | > 100
78 | Cc1ccc(CN2CCC3(C2)C(=O)N(CC2CC2)c2ccccc23)s1 (stereo not given) | – | – | – | – | > 100
79 | O=C(c1ccc2ccccc2n1)N1CCC2(CCN2c2ncccn2)C1 (stereo not given) | – | – | – | – | > 100
80 | COCCNC(=O)c1cc(-c2cc[nH]n2)n2ccccc12 | – | – | – | – | > 100
81 | Cc1nc(-c2cc(C(=O)NCCN3CCOCC3)c3ccccn23)cs1 | – | – | – | – | > 100
82 | CN1CCCN(C(=O)c2cc(-c3cc[nH]n3)n3ccccc23)CC1 | – | – | – | – | > 100
83 | CNC(=O)c1cc2c(nc1NCC(C)C)CCN(CCOC)CC2 | – | – | – | – | > 100
84 | CNC(=O)c1cc2c(nc1NCC(C)C)CCN(C)CC2 | – | – | – | – | > 100
85 | COCCN1CCc2cc(C(=O)NC(C)C)c(NCC(C)C)nc2CC1 | – | – | – | – | > 100
86 | CNC(=O)c1cc2c(nc1NCC1CC1)CCN(CC1CC1)CC2 | – | – | – | – | > 100
87 | Cn1ccnc1CN(Cc1ccccn1)Cc1ccccc1Cl.O=C(O)CC(O)(CC(=O)O)C(=O)O | 6.114 | 725 | – | 45.5 | –
